In ChEMBL document CHEMBL1201862, “PubChem BioAssay data set” (2004):
“And” between values parts separate entries of the source, which are not always exact repeats. Equal entries are not always repeated.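 48-hour exposure; five concentrations; linearly interpolated endpoints. Here, GI50 denotes the concentration required for 50% inhibition of growth.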 The source made the active and inactive calls. Rule as the data show it: active = GI50 up to about 1.1 µM and inactive = higher.

What was measured:
Experiment in all cases: NCI-60 cell line screen, 48 h
M14 = test system: M14
HOP-92 = test system: HOP-92
HL-60 = test system: HL-60
OVCAR-4 = test system: OVCAR-4
U-251 = test system: U-251
TK-10 = test system: TK-10
DU-145 = test system: DU-145
PC-3 = test system: PC-3
UACC-62 = test system: UACC-62
786-0 = test system: 786-0
UO-31 = test system: UO-31
BT-549 = test system: BT-549
COLO 205 = test system: COLO 205
MDA-MB-231 = test system: MDA-MB-231
OVCAR-8 = test system: OVCAR-8
ACHN = test system: ACHN
RXF 393 = test system: RXF 393
SK-MEL-28 = test system: SK-MEL-28
NCI-H23 = test system: NCI-H23
A498 = test system: A498

Measured: GI50

O=C1NC(N2CCCCC2)=N/C1=C\c1ccc(Cl)cc1
inactive: M14 66.8 µM | HOP-92 13 µM | HL-60 > 100 µM | OVCAR-4 68.4 µM | U-251 44.5 µM | TK-10 30.2 µM | DU-145 44.1 µM | PC-3 37.1 µM | UACC-62 26.5 µM | 786-0 28.7 µM | UO-31 34.7 µM | BT-549 71.4 µM | COLO 205 74.5 µM | MDA-MB-231 34.1 µM | OVCAR-8 20.2 µM | ACHN 36.4 µM | RXF 393 > 100 µM | SK-MEL-28 92 µM | NCI-H23 37.2 µM

CCCCCCCCCCCCCCCCOCC(CCl)OP(=O)(O)OP(=O)(O)OCC1OC(n2ccc(N)nc2=O)C(O)C1O (stereo not drawn)
inactive: M14 > 100 µM | HOP-92 > 100 µM | HL-60 > 100 µM | OVCAR-4 > 100 µM | A498 > 100 µM | U-251 > 100 µM | TK-10 > 100 µM | PC-3 87.7 µM | UACC-62 > 100 µM | 786-0 > 100 µM | UO-31 > 100 µM | BT-549 > 100 µM | COLO 205 > 100 µM | MDA-MB-231 > 100 µM | OVCAR-8 > 100 µM | ACHN > 100 µM | RXF 393 > 100 µM | SK-MEL-28 99.3 µM | NCI-H23 > 100 µM

N=c1oc2ccccc2cc1-c1nc2ccccc2c(=O)[nH]1
inactive: M14 > 100 µM | HOP-92 20 µM | HL-60 45.7 µM | OVCAR-4 > 100 µM | U-251 32 µM | TK-10 35.3 µM | DU-145 > 100 µM | PC-3 > 100 µM | UACC-62 27.8 µM | 786-0 31.4 µM | UO-31 27.1 µM | BT-549 23.8 µM | COLO 205 > 100 µM | MDA-MB-231 29.3 µM | OVCAR-8 60.3 µM | ACHN 22.1 µM | RXF 393 31.4 µM | SK-MEL-28 > 100 µM

Cn1cc(S(=O)(=O)NC(=O)Nc2ccc(Cl)cc2)c(=O)c2ccc(Cl)cc21
inactive: M14 > 100 µM | OVCAR-4 > 100 µM | U-251 93.1 µM | TK-10 > 100 µM | PC-3 76.6 µM | UACC-62 20.9 µM | 786-0 > 100 µM | UO-31 > 100 µM | BT-549 43.8 µM | MDA-MB-231 > 100 µM | OVCAR-8 > 100 µM | ACHN 34.2 µM | RXF 393 > 100 µM | SK-MEL-28 > 100 µM | NCI-H23 70 µM

O=c1c2cc([N+](=O)[O-])cnc2sn1-c1ccc(Br)cc1
inactive: M14 53 µM | HOP-92 23.8 µM | HL-60 34.5 µM | OVCAR-4 24.5 µM | U-251 34.4 µM | TK-10 > 100 µM | DU-145 > 100 µM | PC-3 33.7 µM | UACC-62 82.4 µM | 786-0 30.5 µM | UO-31 51.3 µM | BT-549 91.4 µM | COLO 205 47.2 µM | MDA-MB-231 28.3 µM | OVCAR-8 > 100 µM | ACHN > 100 µM | SK-MEL-28 > 100 µM | NCI-H23 29.6 µM

O=c1n(Cc2ccccc2)c(=O)n2c(=O)n(Cc3ccccc3)c(=O)n12
inactive: HOP-92 > 100 µM | HL-60 > 100 µM | OVCAR-4 > 100 µM | A498 > 100 µM | U-251 > 100 µM | TK-10 > 100 µM | DU-145 > 100 µM | UACC-62 > 100 µM | 786-0 > 100 µM | UO-31 > 100 µM | BT-549 > 100 µM | COLO 205 38.3 µM | MDA-MB-231 > 100 µM | OVCAR-8 > 100 µM | ACHN > 100 µM | SK-MEL-28 > 100 µM | NCI-H23 > 100 µM

Cc1ccc(/C=C2\NC(=S)NC2=O)cc1
inactive: M14 > 100 µM | OVCAR-4 62.8 µM | U-251 > 100 µM | TK-10 > 100 µM | DU-145 > 100 µM | PC-3 > 100 µM | UACC-62 > 100 µM | 786-0 > 100 µM | UO-31 > 100 µM | BT-549 > 100 µM | COLO 205 > 100 µM | MDA-MB-231 > 100 µM | OVCAR-8 > 100 µM | RXF 393 > 100 µM | SK-MEL-28 > 100 µM | NCI-H23 > 100 µM

CCC/C(C)=N/NC(=S)SC.CCC/C(C)=N/NC(=S)SC.[Zn+2]
inactive: M14 11.1 µM | OVCAR-4 14.1 µM | A498 22.2 µM | U-251 1.84 µM | TK-10 11.6 µM | DU-145 12 µM | PC-3 12.4 µM | UACC-62 10.9 µM | 786-0 10.9 µM | UO-31 11 µM | BT-549 10.6 µM | COLO 205 14.2 µM | MDA-MB-231 1.7 µM | OVCAR-8 1.89 µM | ACHN 9.08 µM | RXF 393 17.1 µM | SK-MEL-28 16 µM | NCI-H23 13.7 µM

CCCCCCCCCCCCCCCCCCNc1nc(=O)n(C2CC(O)C(COP(=O)(O)O)O2)cc1F (stereo not drawn)
inactive: M14 > 100 µM | OVCAR-4 > 100 µM | A498 6.27 µM | U-251 > 100 µM | TK-10 > 100 µM | DU-145 > 57.4 µM | PC-3 26.1 µM | UACC-62 > 78.2 µM | 786-0 45.2 µM | UO-31 31.7 µM | BT-549 > 100 µM | COLO 205 > 67.1 µM | MDA-MB-231 > 100 µM | OVCAR-8 27.4 µM | ACHN 10.8 µM | RXF 393 > 80 µM | SK-MEL-28 > 100 µM | NCI-H23 58.1 µM

O=[N+]([O-])/C(C(Cl)=C(Cl)Cl)=C(\N1CCCCC1)n1cncn1
inactive: M14 17.2 µM | OVCAR-4 18.6 µM | A498 15.8 µM | U-251 13.3 µM | TK-10 17.2 µM | DU-145 16.6 µM | PC-3 16.4 µM | UACC-62 15.2 µM | 786-0 20.4 µM | UO-31 15.9 µM | BT-549 17.5 µM | COLO 205 15.7 µM | MDA-MB-231 14.8 µM | OVCAR-8 19.5 µM | ACHN 17.7 µM | RXF 393 6.64 µM | SK-MEL-28 16.3 µM | NCI-H23 15.2 µM

O=C1c2ccccc2-c2nc(-c3ccncc3)cc3c2c1nc1ccccc13
inactive: M14 3.21 µM | HOP-92 > 100 µM | HL-60 11 µM | OVCAR-4 27.3 µM | U-251 14.9 µM | TK-10 33.2 µM | DU-145 14.8 µM | PC-3 13.3 µM | UACC-62 13.4 µM | 786-0 11.1 µM | UO-31 9.71 µM | BT-549 40.1 µM | COLO 205 22.3 µM | MDA-MB-231 > 100 µM | OVCAR-8 25.2 µM | ACHN 8.32 µM | SK-MEL-28 32.3 µM | NCI-H23 15.3 µM

CC(=O)OCC(OC(C)=O)C(OC(C)=O)C(OC(C)=O)C(C=NN(C(C)=O)S(=O)(=O)c1ccc(/C=C2\NC(=O)N(C)C2=O)cc1)OC(C)=O (stereo not drawn)
inactive: M14 42.7 µM | OVCAR-4 27 µM | A498 38 µM | U-251 22.6 µM | DU-145 29.5 µM | PC-3 27.9 µM | UACC-62 10.3 µM | 786-0 23.7 µM | UO-31 35.9 µM | BT-549 12.4 µM | COLO 205 29.3 µM | MDA-MB-231 33.5 µM | OVCAR-8 27.2 µM | ACHN 37.4 µM | RXF 393 13.4 µM | NCI-H23 36.1 µM

CC(=O)N1CCN(C23OC4(N5CCN(C(C)=O)CC5)C5C6CC(C7C6C4C72)C53)CC1 (stereo not drawn)
inactive: M14 > 100 µM | HOP-92 > 100 µM | HL-60 > 100 µM | OVCAR-4 > 100 µM | U-251 > 100 µM | TK-10 > 100 µM | DU-145 > 100 µM | PC-3 > 100 µM | UACC-62 > 100 µM | 786-0 > 100 µM | UO-31 > 100 µM | BT-549 > 100 µM | COLO 205 > 100 µM | MDA-MB-231 > 100 µM | OVCAR-8 > 100 µM | ACHN > 100 µM | RXF 393 > 100 µM | NCI-H23 > 100 µM

CCN(CC)C1CCC(C2c3cc4c(cc3OC(N3CCOCC3)C2C)OCO4)CC1 (stereo not drawn)
inactive: M14 13.7 µM | HOP-92 4.09 µM | HL-60 22.6 µM | OVCAR-4 > 100 µM | A498 21 µM | U-251 37.1 µM | TK-10 > 30.6 µM | DU-145 18.5 µM | PC-3 10.4 µM | UACC-62 16.7 µM | 786-0 33.7 µM | UO-31 36.9 µM | BT-549 16.9 µM | COLO 205 7.98 µM | OVCAR-8 23.6 µM | ACHN 16.7 µM | RXF 393 10.7 µM | SK-MEL-28 16.3 µM | NCI-H23 19.6 µM

O=C1CC(C(OCc2ccccc2)C(OCc2ccccc2)C(COCc2ccccc2)OCc2ccccc2)CC(=O)N1 (stereo not drawn)
inactive: M14 > 75 µM | HL-60 > 100 µM | OVCAR-4 > 75 µM | A498 > 100 µM | TK-10 > 75 µM | DU-145 > 75 µM | PC-3 > 75 µM | 786-0 > 75 µM | BT-549 > 100 µM | COLO 205 > 100 µM | MDA-MB-231 71.4 µM | OVCAR-8 > 75 µM | ACHN > 75 µM | RXF 393 42.9 µM and 29.6 µM | SK-MEL-28 > 75 µM | NCI-H23 > 75 µM
